Test results taken from US8946234B2, “Halogen-substituted compounds” (Bayer CropScience AG, priority 2008, dated 2015).

Assays:
[1] = logP by HPLC on a C18 phase inversion column, EEC Directive 79/831 Annex V.A8, method b) (HP1100, 5-95% acetonitrile in 1.70 min); assay type: physicochemical; conditions: HPLC method b)
Method: ^b) Note regarding the determination of the log P values and mass detection: The log P values given were determined in accordance with EEC Directive 79/831 Annex V.A8 by HPLC (High Performance Liquid Chromatography) on a phase inversion column (C18). HP1100; 50*4.6 Zorbax Eclipse Plus C18 1.8 micron; eluent A: acetonitrile (0.1% formic acid); eluent B: water (0.08% formic acid); linear gradient from 5% acetonitrile to 95% acetonitrile in 1.70 min, then 95% acetonitrile for a further 1.00 min; oven temperature 55° C.; flow: 2.0 ml/min. The mass detection is carried out via the mass detector Micromass ZQ2000 from Waters.

[2] = logP by HPLC on a C18 phase inversion column, EEC Directive 79/831 Annex V.A8, method a) (Agilent 1100, 10-95% acetonitrile in 4.25 min); assay type: physicochemical; conditions: for chromatographic logP: HPLC phase inversion (reversed-phase) C18 column, HPLC method a), eluent acetonitrile/water with formic acid, read-out: logP
How it was run: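 Reversed-phase C18 HPLC (50×4.6 mm, 1.8 micron), 55 °C, 2.0 ml/min, acetonitrile/water with formic acid. Linear gradient 10% to 95% acetonitrile over 4.25 min, then 95% for 1.25 min. logP derived from retention per EEC Directive 79/831 Annex V.A8; MS detection.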

Row | Compound | logP [2] | other results
1 | Cn1nc(C(F)(F)C(F)(F)F)c(C(F)(F)F)c1C(=O)Nc1ccc(Cl)c(C(=O)NC2CC2(F)F)c1 (centres unmarked) [Ik-6] |  | logP [1]: 3.33^b)
2 | Cn1nc(C(F)C2CC2)c(C(F)(F)F)c1C(=O)Nc1ccc(Cl)c(C(=O)NC2CC2)c1 (centres unmarked) [Ik-233, N-[4-Chloro-3-(cyclopropylcarbamoyl)phenyl]-3-[cyclopropyl(fluoro)methyl]-1-methyl-4-(trifluoromethyl)-1H-pyrazole-5-carboxamide] |  | chromatographic logP [2]: 2.76
3 | Cn1nc(OC(F)F)cc1C(=O)Nc1ccc(Cl)c(C(=O)NC2CC2)c1 [Ik-234] | 2.17^a) | 
4 | Cn1nc(C2CC2)c(Br)c1C(=O)Nc1ccc(Cl)c(C(=O)NC2CC2)c1 [Ik-235] | 2.60^a) | 
5 | Cn1nc(OC(F)F)c(Br)c1C(=O)Nc1ccc(Cl)c(C(=O)NCC(F)(F)F)c1 [Ik-236] | 2.88^a) | 
6 | Cn1nc(OC(F)F)c(Br)c1C(=O)Nc1ccc(Cl)c(C(=O)NC2CC2)c1 [Ik-237] | 2.51^a) | 
7 | Cn1nc(OC(F)F)c(Cl)c1C(=O)Nc1ccc(Cl)c(C(=O)NC2CC2)c1 [Ik-238] | 2.52^a) | 
8 | Cn1nc(OC(F)F)c(Cl)c1C(=O)Nc1ccc(Cl)c(C(=O)NCC(F)(F)F)c1 [Ik-239] | 2.89^a) | 
9 | Cn1nc(OC(F)F)c(I)c1C(=O)Nc1ccc(Cl)c(C(=O)NC2CC2)c1 [Ik-240] | 2.54^a) | 
10 | Cn1nc(OC(F)F)c(I)c1C(=O)Nc1ccc(Cl)c(C(=O)NCC(F)(F)F)c1 [Ik-241] | 2.92^a) | 
11 | Cn1nc(OCC(F)(F)F)c(Cl)c1C(=O)Nc1ccc(Cl)c(C(=O)NC2CC2)c1 [Ik-242] | 2.89^a) | 
12 | Cn1nc(OCC(F)(F)F)c(Cl)c1C(=O)Nc1ccc(Cl)c(C(=O)NCC(F)(F)F)c1 [Ik-243] | 3.27^a) | 
13 | Cn1nc(OCC(F)(F)F)c(I)c1C(=O)Nc1ccc(Cl)c(C(=O)NCC(F)(F)F)c1 [Ik-244] | 3.24^a) | 
14 | Cn1nc(OCC(F)(F)F)c(I)c1C(=O)Nc1ccc(Cl)c(C(=O)NC2CC2)c1 [Ik-245] | 2.85^a) | 
15 | Cn1nc(OCC(F)(F)F)cc1C(=O)Nc1ccc(Cl)c(C(=O)NCC(F)(F)F)c1 [Ik-246] | 2.92^a) | 
16 | Cn1nc(OCC(F)(F)F)cc1C(=O)Nc1ccc(Cl)c(C(=O)NC2CC2)c1 [Ik-247] | 2.55^a) | 
17 | Cn1nc(-c2ccc(F)cc2)c(Br)c1C(=O)Nc1ccc(Cl)c(C(=O)NC2CC2)c1 [Ik-248] | 3.04^a) | 
18 | Cn1nc(-c2ccc(C(F)(F)F)cc2)c(Br)c1C(=O)Nc1ccc(Cl)c(C(=O)NC2CC2)c1 [Ik-249] | 3.63^a) | 
19 | Cn1nc(-c2ccc(Cl)cc2Cl)c(Br)c1C(=O)Nc1ccc(Cl)c(C(=O)NC2CC2)c1 [Ik-250] | 3.59^a) | 
20 | Cn1nc(-c2ccc(OC(F)(F)F)cc2)c(Br)c1C(=O)Nc1ccc(Cl)c(C(=O)NC2CC2)c1 [Ik-251] | 3.76^a) | 
21 | Cn1nc(-c2ccccc2Cl)c(Br)c1C(=O)Nc1ccc(Cl)c(C(=O)NCC(F)(F)F)c1 [Ik-252] | 3.41^a) | 

Row | Compound | logP [2] | other results
22 | Cn1nc(-c2ccc(C(F)(F)F)cc2)c(Br)c1C(=O)Nc1ccc(Cl)c(C(=O)NCC(F)(F)F)c1 [Ik-253] | 3.99^a) | 
23 | Cn1nc(-c2ccc(Cl)cc2Cl)c(Br)c1C(=O)Nc1ccc(Cl)c(C(=O)NCC(F)(F)F)c1 [Ik-254] | 4.04^a) | 
24 | Cn1nc(-c2ccc(OC(F)(F)F)cc2)c(Br)c1C(=O)Nc1ccc(Cl)c(C(=O)NCC(F)(F)F)c1 [Ik-255] | 4.15^a) | 
25 | Cn1nc(OCC(F)(F)F)c(Br)c1C(=O)Nc1ccc(Cl)c(C(=O)NC2CC2)c1 [Ik-256] | 2.87^a) | 
26 | Cn1nc(OCC(F)(F)F)c(Br)c1C(=O)Nc1ccc(Cl)c(C(=O)NCC(F)(F)F)c1 [Ik-257] | 3.26^a) | 
27 | Cn1nc(-c2cc(C(F)(F)F)cc(C(F)(F)F)c2)c(C(F)(F)F)c1C(=O)Nc1ccc(Cl)c(C(=O)NCC(F)(F)F)c1 [Ik-258] | 4.46^a) | 
28 | Cn1nc(-c2cc(C(F)(F)F)cc(C(F)(F)F)c2)c(C(F)(F)F)c1C(=O)Nc1ccc(Cl)c(C(=O)NC2CC2)c1 [Ik-259] | 4.19^a) | 
29 | Cn1nc(OCC(F)(F)F)c(F)c1C(=O)Nc1ccc(Cl)c(C(=O)NC2CC2)c1 [Ik-260] | 2.75^a) | 
30 | Cn1nc(C2CC2)c(C(F)(F)F)c1C(=O)Nc1ccc(Cl)c(C(=O)NC2CC2)c1 [Ik-261] | 2.78^a) | 
31 | C=CCc1c(C(F)(F)C(F)(F)F)nn(C)c1C(=O)Nc1ccc(Cl)c(C(=O)NC2CC2)c1 [Ik-262] | 3.37^a) | 
32 | CCc1c(C(F)(F)C(F)(F)F)nn(C)c1C(=O)Nc1cccc(C(=O)NC2CC2)c1 [Ik-263] | 3.05^a) | 
33 | Cn1nc(C(F)(F)OC(F)(F)C(F)(F)OC(F)(F)F)c(I)c1C(=O)Nc1ccc(Cl)c(C(=O)NC2CC2)c1 [Ik-264] | 3.66^a) | 
34 | Cn1nc(C(F)(F)C(F)(F)C(F)(F)C(F)(F)F)c(I)c1C(=O)Nc1ccc(Cl)c(C(=O)NC2CC2)c1 [Ik-265] | 3.90^a) | 
35 | Cn1nc(C(F)(F)C(F)(F)C(F)(F)C(F)(F)F)cc1C(=O)Nc1ccc(Cl)c(C(=O)NC2CC2)c1 [Ik-266] | 3.74^a) | 
36 | CC(NC(=O)c1cc(NC(=O)c2c(I)c(C(F)(F)C(F)(F)C(F)(F)C(F)(F)F)nn2C)ccc1Cl)C1CC1 (centres unmarked) [Ik-267] | 4.38^a) | 
37 | Cn1nc(C(F)(F)C(F)(F)C(F)(F)C(F)(F)F)c(I)c1C(=O)Nc1ccc(Cl)c(C(=O)NC2CCC2)c1 [Ik-268] | 4.16^a) | 
38 | Cn1nc(C(F)(F)C(F)(F)C(F)(F)C(F)(F)F)c(I)c1C(=O)Nc1ccc(Cl)c(C(=O)NCC=CCl)c1 [Ik-269] | 4.27^a) | 
39 | Cn1nc(C(F)(F)C(F)(F)F)c(C(F)(F)F)c1C(=O)Nc1cc(C(=O)NC2CC2F)c(Cl)cn1 (centres unmarked) [Ik-314] | 3.14^a) | 
40 | C=CCNC(=O)c1cc(NC(=O)c2c(C(F)(F)F)c(C(F)(F)C(F)(F)F)nn2C)ncc1Br [Ik-315] | 3.42^a) | 
41 | C=CCNC(=O)c1cc(NC(=O)c2c(C(F)(F)F)c(C(F)(F)C(F)(F)F)nn2C)ncc1Cl [Ik-316] | 3.38^a) | 
42 | Cn1nc(C(F)(F)C(F)(F)F)c(C(F)(F)F)c1C(=O)Nc1cc(C(=O)NCC(F)(F)F)c(Cl)cn1 [Ik-317] | 3.61^a) | 

Row | Compound | logP [2] | other results
43 | Cn1nc(C(F)(F)C(F)(F)F)c(C(F)(F)F)c1C(=O)Nc1cc(C(=O)NC2CC2)c(Cl)cn1 [Ik-318] | 3.24^a) | 
44 | Cc1nc(C(F)(F)F)ccc1C(=O)Nc1ccc(Cl)c(C(=O)NC2CC2)c1 [Ir-2] | 2.27^a) | 
45 | CC(C)NC(=O)c1cc(NC(=O)c2ccc(C(F)(F)F)nc2Cl)ccc1Cl [Ir-3] | 2.68^a) | 
46 | Cc1nc(C(F)(F)F)ccc1C(=O)Nc1ccc(Cl)c(C(=O)NC(C)C)c1 [Ir-4] | 2.53^a) | 
47 | CNC(=O)c1cc(NC(=O)c2ccc(C(F)(F)F)nc2C)ccc1Cl [Ir-5] | 1.97^a) | 
48 | CNC(=O)c1cc(NC(=O)c2ccc(C(F)(F)F)nc2Cl)ccc1Cl [Ir-6] | 2.16^a) | 
49 | C=CCNC(=O)c1cc(NC(=O)c2ccc(C(F)(F)F)nc2Cl)c(C)cc1Cl [Ir-7] | 2.68^a) | 
50 | C=CCNC(=O)c1cc(NC(=O)c2ccc(C(F)(F)F)nc2C)c(C)cc1Cl [Ir-8] | 2.45^a) | 
51 | O=C(NCC(F)(F)F)c1cc(NC(=O)c2ccc(C(F)(F)F)nc2Cl)ccc1Cl [Ir-9] | 2.82^a) | 
52 | O=C(NCC=CCl)c1cc(NC(=O)c2ccc(C(F)(F)F)nc2Cl)ccc1Cl [Ir-10] | 2.86^a) | 
53 | Cc1nc(C(F)(F)F)ccc1C(=O)Nc1ccc(Cl)c(C(=O)NCC(F)(F)F)c1 [Ir-11] | 2.67^a) | 
54 | COC(=O)c1cc(NC(=O)c2c(C(F)(F)F)c(C(F)(F)C(F)(F)F)nn2C)ccc1Cl [Methyl 2-chloro-5-({[1-methyl-3-(pentafluoroethyl)-4-(trifluoromethyl)-1H-pyrazol-5-yl]carbonyl}amino)benzoate] |  | chromatographic logP [2]: 4.05
55 | COC(=O)c1[nH]nc(C(F)(F)C(F)(F)F)c1C(F)(F)F [Methyl 3-(pentafluoroethyl)-4-(trifluoromethyl)-1H-pyrazole-5-carboxylate] |  | chromatographic logP [2]: 3.02
56 | COC(=O)c1cc(N(C(=O)c2c(C(F)(F)F)c(C(F)(F)C(F)(F)F)nn2C)C(=O)c2c(C(F)(F)F)c(C(F)(F)C(F)(F)F)nn2C)ccc1Cl [Methyl 5-(bis{[1-methyl-3-(pentafluoroethyl)-4-(trifluoromethyl)-1H-pyrazol-5-yl]carbonyl}amino)-2-chlorobenzoate] |  | chromatographic logP [2]: 5.85
57 | Cn1nc(C(O)C2CC2)c(C(F)(F)F)c1C(=O)Nc1ccc(Cl)c(C(=O)NC2CC2)c1 (centres unmarked) [N-[4-chloro-3-(cyclopropylcarbamoyl)phenyl]-3-[cyclopropyl(hydroxy)methyl]-1-methyl-4-(trifluoromethyl)-1H-pyrazole-5-carboxamide] |  | chromatographic logP [2]: 2
58 | CCOC(=O)c1cc(NC(=O)c2nc(C)nc(C(F)(F)C(F)(F)F)c2C(F)(F)F)ccc1Cl [ethyl 2-chloro-5-({[2-methyl-6-(pentafluoroethyl)-5-(trifluoromethyl)pyrimidin-4-yl]-carbonyl}amino)benzoate] |  | chromatographic logP [2]: 4.55
59 | COC(=O)c1c(Cl)cnc(N)c1Cl [methyl 2-amino-3,5-dichloroisonicotinate] |  | chromatographic logP [2]: 1.75
60 | COC(=O)c1cc(N)ncc1Cl [methyl 2-amino-5-chloroisonicotinate] |  | chromatographic logP [2]: 1.3
61 | COC(=O)c1cc(NC(=O)c2c(C(F)(F)F)c(C(F)(F)C(F)(F)F)nn2C)cnc1Cl [methyl 2-chloro-5-({[1-methyl-3-(pentafluoroethyl)-4-(trifluoromethyl)-1H-pyrazol-5-yl]carbonyl}amino)nicotinate] |  | chromatographic logP [2]: 3.7
62 | COC(=O)c1cc(NC(=O)c2c(C(F)(F)F)c(C(F)(F)C(F)(F)F)nn2C)ncc1Br [methyl 5-bromo-2-({[1-methyl-3-(pentafluoroethyl)-4-(trifluoromethyl)-1H-pyrazol-5-yl]carbonyl}amino)-isonicotinate] |  | chromatographic logP [2]: 4.04
